Paper PMC6691788, “Design and synthesis of phthalazine-based compounds as potent anticancer agents with potential antiangiogenic activity via VEGFR-2 inhibition” (Journal of Enzyme Inhibition and Medicinal Chemistry, 2019)

Columns and labels:
Assay in all cases: NCI 60 cell panel SRB screen
[1] = system: HL-60(TB); format: cell-based; conditions: Homo sapiens; for activity at 10 µM: single dose 10 μM, read-out: percent cell growth promotion
[2] = system: MOLT-4; format: cell-based; conditions: Homo sapiens; for activity at 10 µM: MOLT-4, single dose 10 μM, read-out: percent cell growth promotion
[3] = system: A549/ATCC; format: cell-based; conditions: Homo sapiens; for activity at 10 µM: single dose 10 μM, read-out: percent cell growth promotion
[4] = system: HOP-92; format: cell-based; conditions: Homo sapiens; for activity at 10 µM: HOP-92, single dose 10 μM, read-out: percent cell growth promotion
[5] = system: NCI-H460; format: cell-based; conditions: Homo sapiens; for activity at 10 µM: NCI-H460, single dose 10 μM, read-out: percent cell growth promotion
[6] = system: HCC-2998; format: cell-based; conditions: Homo sapiens; for activity at 10 µM: HCC-2998, single dose 10 μM, read-out: percent cell growth promotion
[7] = system: HT29; format: cell-based; conditions: Homo sapiens, HT-29; for activity at 10 µM: HT29, single dose 10 μM, read-out: percent cell growth promotion
[8] = system: KM12; format: cell-based; conditions: Homo sapiens; for activity at 10 µM: KM12, single dose 10 μM, read-out: percent cell growth promotion
[9] = system: SF-268; format: cell-based; conditions: Homo sapiens; for activity at 10 µM: SF-268, single dose 10 μM, read-out: percent cell growth promotion
[10] = system: UACC-257; format: cell-based; conditions: Homo sapiens; for activity at 10 µM: UACC-257, read-out: percent cell growth promotion
[11] = system: OVCAR-3; format: cell-based; conditions: Homo sapiens; for activity at 10 µM: OVCAR-3, single dose 10 μM, read-out: percent cell growth promotion
[12] = system: OVCAR-8; format: cell-based; conditions: Homo sapiens; for activity at 10 µM: OVCAR-8, single dose 10 μM, read-out: percent cell growth promotion
[13] = system: NCI/ADR-RES; format: cell-based; conditions: Homo sapiens; for activity at 10 µM: single dose 10 μM, read-out: percent cell growth promotion
[14] = system: SK-OV-3; format: cell-based; conditions: Homo sapiens; for activity at 10 µM: SK-OV-3, single dose 10 μM, read-out: percent cell growth promotion
[15] = system: RXF 393; format: cell-based; conditions: Homo sapiens; for activity at 10 µM: RXF 393, single dose 10 μM, read-out: percent cell growth promotion
[16] = system: TK-10; format: cell-based, human; conditions: for activity at 10 µM: TK-10, single dose 10 μM, read-out: percent cell growth promotion
[17] = system: UO-31; format: cell-based; conditions: Homo sapiens; for activity at 10 µM: UO-31, single dose 10 μM, read-out: percent cell growth promotion
[18] = system: PC-3; format: cell-based; conditions: Homo sapiens; for activity at 10 µM: PC-3, single dose 10 μM, read-out: percent cell growth promotion
[19] = system: MDA-MB-468; format: cell-based; conditions: Homo sapiens; for activity at 10 µM: MDA-MB-468, MDA-MBA-468, single dose 10 μM, read-out: percent cell growth promotion
Outline: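 Cells in RPMI 1640 with 5% FBS, preincubated 24 h, then exposed to five concentrations for 48 h at 37 °C. TCA fixation, SRB staining, absorbance at 515 nm; a time-zero plate allows GI50 (50% reduction in net protein gain), TGI and LC50 (50% loss versus start).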

[20] = 5 log dose, 48 h, read-out: LC50 (the source's name)

Cc1nnc(Nc2ccc(NC(=O)Nc3ccc(Cl)cc3)cc2)c2ccccc12 [Compound 6e, 1–(4-Chlorophenyl)-3–(4-(4-methylphthalazin-1-ylamino)phenyl)urea]
GI50 ([1]; 5 log dose): 2.03 µM
IC (TGI) ([1]; 5 log dose): 4.18 µM
CC50 [1, 20]: 8.64 µM
activity at 10 µM [1]: -34.8%
GI50 ([2]; MOLT-4, 5 log dose): 2.36 µM
IC (TGI) ([2]; MOLT-4, 5 log dose): 6 µM
CC50 ([2]; MOLT-4, 5 log dose, 48 h, read-out: LC50 (the source's name)): > 100 µM
activity at 10 µM [2]: 9.76%
GI50 ([3]; 5 log dose): 3.24 µM
IC (TGI) ([3]; 5 log dose): 8.59 µM
LC50 (concentration killing 50% of cells) ([3]; 5 log dose, 48 h): 37.9 µM
activity at 10 µM [3]: 26.4%
GI50 ([4]; HOP-92, 5 log dose): 2.56 µM
IC (TGI) ([4]; HOP-92, 5 log dose): 6.6 µM
CC50 ([4]; HOP-92, 5 log dose, 48 h, read-out: LC50 (the source's name)): 42 µM
activity at 10 µM [4]: 4.62%
GI50 ([5]; NCI-H460, 5 log dose): 3.46 µM
IC (TGI) ([5]; NCI-H460, 5 log dose): 11.7 µM
LC50 (concentration causing 50% cell kill) ([5]; NCI-H460, 5 log dose, 48 h): 39.1 µM
activity at 10 µM [5]: 26.1%
GI50 ([6]; HCC-2998, 5 log dose): 2.84 µM
IC (TGI) ([6]; HCC-2998, 5 log dose): 8.09 µM
LC50 (50% lethal concentration) ([6]; HCC-2998, 5 log dose, 48 h): 27.8 µM
activity at 10 µM [6]: 40.5%
GI50 ([7]; HT29, 5 log dose): 1.78 µM
IC (TGI) ([7]; HT29, 5 log dose): 3.67 µM
CC50 ([7]; HT29, 5 log dose, 48 h, read-out: LC50 (the source's name)): 7.56 µM
activity at 10 µM [7]: 2.24%
GI50 ([8]; KM12, 5 log dose): 1.99 µM
IC (TGI) ([8]; KM12, 5 log dose): 4.53 µM
CC50 ([8]; KM12, 5 log dose, 48 h, read-out: LC50 (the source's name)): 11.1 µM
activity at 10 µM [8]: 14.1%
GI50 ([9]; SF-268, 5 log dose): 2.57 µM
IC (TGI) ([9]; SF-268, 5 log dose): 7.17 µM
CC50 ([9]; SF-268, 5 log dose, 48 h, read-out: LC50 (the source's name)): 47 µM
activity at 10 µM [9]: 48.7%
GI50 ([10]; UACC-257): 2.39 µM
IC (TGI) ([10]; UACC-257, read-out: TGI): 5.3 µM
activity at 10 µM [10]: 73.8%
GI50 ([11]; OVCAR-3, 5 log dose): 1.87 µM
IC (TGI) ([11]; OVCAR-3, 5 log dose): 3.99 µM
CC50 ([11]; OVCAR-3, 5 log dose, 48 h, read-out: LC50 (the source's name)): 8.47 µM
activity at 10 µM [11]: 44.4%
GI50 ([12]; OVCAR-8, 5 log dose): 3.35 µM
IC (TGI) ([12]; OVCAR-8, 5 log dose): 9.32 µM
CC50 ([12]; OVCAR-8, 5 log dose, 48 h, read-out: LC50 (the source's name)): 47.4 µM
activity at 10 µM [12]: 31.4%
GI50 ([13]; 5 log dose): 3.63 µM
IC (TGI) ([13]; 5 log dose): 14.9 µM
CC50 [13, 20]: > 100 µM
activity at 10 µM [13]: 45.1%
GI50 ([14]; SK-OV-3, 5 log dose): 2.61 µM
IC (TGI) ([14]; SK-OV-3, 5 log dose): 6.59 µM
CC50 ([14]; SK-OV-3, 5 log dose, 48 h, read-out: LC50 (the source's name)): 30.7 µM
activity at 10 µM [14]: 66.4%
GI50 ([15]; RXF 393, 5 log dose): 2.17 µM
IC (TGI) ([15]; RXF 393, 5 log dose): 4.13 µM
CC50 ([15]; RXF 393, 5 log dose, 48 h, read-out: LC50 (the source's name)): 7.84 µM
activity at 10 µM [15]: -39.7%
GI50 ([16]; Homo sapiens, TK-10, 5 log dose): 3.19 µM
CC50 ([16]; Homo sapiens, TK-10, 5 log dose, 48 h, read-out: LC50 (the source's name)): 33.7 µM
activity at 10 µM ([16]; Homo sapiens): 51.7%
TGI ([16]; TK-10, 5 log dose): 9.42 µM
GI50 ([17]; UO-31, 5 log dose): 2.14 µM
IC (TGI) ([17]; UO-31, 5 log dose): 6.01 µM
CC50 ([17]; UO-31, 5 log dose, 48 h, read-out: LC50 (the source's name)): 31.8 µM
activity at 10 µM [17]: 51.2%
GI50 ([18]; PC-3, 5 log dose): 3.49 µM
IC (TGI) ([18]; PC-3, 5 log dose): 11.9 µM
CC50 ([18]; PC-3, 5 log dose, 48 h, read-out: LC50 (the source's name)): 62.7 µM
activity at 10 µM [18]: 22.8%
activity at 10 µM [19]: 6.44%
GI50 ([19]; MDA-MB-468, 5 log dose): 2.84 µM
IC (TGI) ([19]; MDA-MB-468, 5 log dose): 7.43 µM
CC50 ([19]; MDA-MB-468, 5 log dose, 48 h, read-out: LC50 (the source's name)): 36.2 µM

c1ccc(N2CCN(c3nncc4ccccc34)CC2)nc1 [Compound 8d, 1–(4-(Pyridin-2-yl)piperazin-1-yl)phthalazine]
activity at 10 µM [1]: 96.6%
activity at 10 µM [2]: 106%
activity at 10 µM [3]: 100%
activity at 10 µM [4]: 102%
activity at 10 µM [5]: 108%
activity at 10 µM [6]: 117%
activity at 10 µM [7]: 98.2%
activity at 10 µM [8]: 104%
activity at 10 µM [9]: 103%
activity at 10 µM [10]: 99%
activity at 10 µM [11]: 99.9%
activity at 10 µM [12]: 97.8%
activity at 10 µM [13]: 109%
activity at 10 µM [14]: 104%
activity at 10 µM [15]: 108%
activity at 10 µM ([16]; Homo sapiens): 105%
activity at 10 µM [17]: 96%
activity at 10 µM [18]: 101%
activity at 10 µM [19]: 93.3%

Cc1nnc(N2CCN(c3ccccn3)CC2)c2ccccc12 [Compound 8i, 1-Methyl-4–(4-(pyridin-2-yl)piperazin-1-yl)phthalazine]
activity at 10 µM [1]: 108%
activity at 10 µM [2]: 96.1%
activity at 10 µM [3]: 92.3%
activity at 10 µM [4]: 119%
activity at 10 µM [5]: 103%
activity at 10 µM [6]: 102%
activity at 10 µM [7]: 91.2%
activity at 10 µM [8]: 110%
activity at 10 µM [9]: 106%
activity at 10 µM [10]: 98.5%
activity at 10 µM [11]: 114%
activity at 10 µM [12]: 98.9%
activity at 10 µM [13]: 105%
activity at 10 µM [14]: 108%
activity at 10 µM [15]: 98.6%
activity at 10 µM ([16]; Homo sapiens): 83.2%
activity at 10 µM [17]: 102%
activity at 10 µM [18]: 100%
activity at 10 µM [19]: 87.4%
